From patent US12129244B2, “Modulators of Mas-related G-protein receptor X2 and related products and methods” (Escient Pharmaceuticals, Inc., priority 2022, dated 2024) come the findings set out here.

SMILES strings stand for the structures. Bounds are passed on as bounds.

For this assay, the target named is T1, human MRGPRX2 (Homo sapiens, UniProt Q96LB1).
T1 construct: expressed in transfected cells
T1 sequence (Q96LB1 1-330): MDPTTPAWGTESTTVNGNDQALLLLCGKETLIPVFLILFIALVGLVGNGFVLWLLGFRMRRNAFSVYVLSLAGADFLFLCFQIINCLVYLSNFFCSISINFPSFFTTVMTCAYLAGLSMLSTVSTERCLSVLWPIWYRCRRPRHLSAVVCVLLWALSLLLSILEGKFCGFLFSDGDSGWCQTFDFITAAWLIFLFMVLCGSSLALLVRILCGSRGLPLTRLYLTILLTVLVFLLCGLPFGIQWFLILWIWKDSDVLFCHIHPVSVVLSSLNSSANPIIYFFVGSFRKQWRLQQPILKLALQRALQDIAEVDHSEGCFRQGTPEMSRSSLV
As to the kind of experiment: MRGPRX2 activity: IP-One HTRF antagonist assay in CHO cells versus Cortistatin-14. The class given is cell-based. The conditions noted are these: CHO cells stably expressing human MRGPRX2; versus 0.3 uM Cortistatin-14 agonist; IP-1 HTRF. The method, then: CHO cells stably transfected to express human MRGPRX2 were maintained in an incubator at 37° C. with 5% CO2 and grown in F12 (HAM) media with 10% fetal bovine serum (FBS), 1% Glutamax, 1% penicillin/streptomycin, 800 μg/mL Geneticin (G418), and 300 μg/mL Hygromycin B.
Cells were plated in a 384-well assay plate at 20,000 cells per well in 12 μL of Opti-MEM and kept in an incubator overnight. On the day of the assay, compounds solubilized at 10 mM in DMSO were added as a 10-point curve (30 uM final top concentration with 1:3 serial dilutions) using a Tecan D300E digital dispenser. Agonists were diluted in assay buffer (final concentrations of 5.7 mM Tris-HCl, 43 mM NaCl, 50 mM LiCl, pH=8) and 2 μL of the agonist Cortistatin-14 (CPC Scientific, catalog CORT-002) are added to each well. Final concentrations of agonists were 0.3 μM Cortistatin. Final concentrations of DMSO were kept consistent across the plate. Plates were incubated in the dark for 1 h at 37° C. and then for 1 h at room temperature. IP-1 standards and HTRF detection reagents were added according to the IP-One-Gq Kit purchased from Cisbio (part number 62IPAPEJ) and incubated in the dark for 1 h at room temperature. The plate was read on a Molecular Devices SpectraMax iD5 plate reader. The HTRF ratio was calculated from the raw data and graphed using GraphPad Prism to calculate an IC50 value for each compound.
The activity ranges are denoted as follows: “+++++” denotes antagonist activity <100 nM; “++++” denotes antagonist activity between 100 and 500 nM; “+++” denotes activity between 501 and 1000 nM; “[…]” denotes activity between 1001 and 2500 nM; and “+” denotes activity >2500 nM
On the technique in general: Time-resolved FRET reads energy transfer from a long-lived donor to a nearby acceptor.
As to `O=C(N[C@@H]1CCC[C@H](Nc2cc(C(F)(F)F)nc3ccccc23)C1)c1coc2ccccc2c1=O` (racemic) [Example 4-111], the IC50 (usually the concentration needed to halve the response being measured) was greater than 2500 nM.

Regarding `CS(=O)(=O)Nc1ccc(C(=O)N[C@@H]2CCC[C@H](Nc3cc(C(F)(F)F)nc4ccc(Cl)cc34)C2)cc1` [Example 4-240], the IC50 is less than 100 nM. The compound `O=C(N[C@@H]1CCC[C@H](Nc2cc(C(F)(F)F)nc3ccc(Cl)cc23)C1)c1ccon1` [Example 4-425] registered an IC50 of less than 100 nM. Compound `O=C(N[C@@H]1CCC[C@H](Nc2cc(C(F)(F)F)nc3ccccc23)C1)c1ccccc1Oc1ccccc1` (racemic) [Example 4-113] returned an IC50 greater than 2500 nM.

`O=C(N[C@@H]1CCC[C@H](Nc2cc(C(F)(F)F)nc3ccc(Cl)cc23)C1)c1ccc2nncn2c1` [Example 4-245] registered an IC50 of less than 100 nM. The compound `CNc1cc(C(=O)N[C@@H]2CCC[C@H](Nc3cc(C(F)(F)F)nc4ccc(Cl)cc34)C2)ccc1OC` [Example 4-413] had an IC50 of less than 100 nM. `O=C(N[C@@H]1CCC[C@H](Nc2cc(C(F)(F)F)nc3ccc(Cl)cc23)C1)c1ccn2cnnc2c1` [Example 4-397] yielded a half-maximal inhibitory concentration (IC50) of less than 100 nM. Compound `O=C(N[C@@H]1CCC[C@H](Nc2cc(C(F)(F)F)nc3ccc(Cl)cc23)C1)c1cn(C(F)F)nc1Cl` [Example 4-406] displayed an IC50 of less than 100 nM.

In turn, `Cc1nn(C)cc1C(=O)N[C@@H]1CCC[C@H](Nc2cc(C(F)(F)F)nc3ccc(Cl)cc23)C1` [Example 4-401] showed an IC50 of less than 100 nM. `Cn1c(C(=O)N[C@@H]2CCC[C@H](Nc3cc(C(F)(F)F)nc4ccc(Cl)cc34)C2)cnc1Cl` [Example 4-412]: the concentration for half-maximal inhibition (IC50) was less than 100 nM. For `O=C(N[C@@H]1CCC[C@H](Nc2cc(C(F)(F)F)nc3ccc(Cl)cc23)C1)c1cnn(CCCl)c1` [Example 4-396], the IC50 is less than 100 nM. The compound `Cc1nn(CC(F)(F)F)cc1C(=O)N[C@@H]1CCC[C@H](Nc2cc(C(F)(F)F)nc3ccc(Cl)cc23)C1` [Example 4-464] returned an IC50 of less than 100 nM.

Consider `CC(C)(C)OC(=O)N1CC[C@@H](n2cc(C(=O)N[C@@H]3CCC[C@H](Nc4cc(C(F)(F)F)nc5ccc(Cl)cc45)C3)cn2)C1` [Example 40, tert-butyl (R)-3-(4-(((1R,3S)-3-((6-chloro-2-(trifluoromethyl)quinolin-4-yl)amino)cyclohexyl)carbamoyl)-1H-pyrazol-1-yl)pyrrolidine-1-carboxylate], for which the IC50 was less than 100 nM. Turning to `Cc1cn2cc(C(=O)N[C@@H]3CCC[C@H](Nc4cc(C(F)(F)F)nc5ccc(Cl)cc45)C3)ccc2n1` [Example 4-265], the IC50 is less than 100 nM.

Compound `O=C(N[C@@H]1CCC[C@H](Nc2cc(C(F)(F)F)nc3ccc(Cl)cc23)C1)c1c[nH]nc1C(F)F` [Example 4-511] returned an IC50 of less than 100 nM. As for `O=C(CCc1ccc(Cl)c(F)c1)N[C@@H]1CCC[C@H](Nc2cc(C(F)(F)F)nc3ccccc23)C1` (racemic) [Example 4-82], the IC50 is greater than 2500 nM. The compound `CC(C#N)c1cccc(C(=O)N[C@@H]2CCC[C@H](Nc3cc(C(F)(F)F)nc4ccc(F)cc34)C2)c1` (some centres unmarked) [Example 4-282] showed an IC50 of less than 100 nM. Then `CS(=O)(=O)Nc1cccc(C(=O)N[C@@H]2CCC[C@H](Nc3cc(C(F)(F)F)nc4ccc(F)cc34)C2)c1` [Example 4-302], with less than 100 nM. `CCCn1nccc1C(=O)N[C@@H]1CCC[C@H](Nc2cc(C(F)(F)F)nc3ccc(F)cc23)C1` [Example 4-325] gave a 50% inhibitory concentration (IC50) of 100 to 500 nM. Then `O=C(N[C@@H]1CCC[C@H](Nc2cc(C(F)(F)F)nc3ccc(Cl)cc23)C1)c1cc(O)cc(O)c1` [Example 4-271], with less than 100 nM; and `O=C(N[C@@H]1CCC[C@H](Nc2cc(C(F)(F)F)nc3ccc(Cl)cc23)C1)c1ccnc2cn[nH]c12` [Example 4-263], with less than 100 nM. The compound `Cc1c(C(=O)N[C@@H]2CCC[C@H](Nc3cc(C(F)(F)F)nc4ccc(Cl)cc34)C2)ccn1CC(F)F` [Example 5-5] came in with an IC50 of less than 100 nM. The compound `CCc1[nH]ccc1C(=O)N[C@@H]1CCC[C@H](Nc2cc(C(F)(F)F)nc3ccc(Cl)cc23)C1` [Example 4-427] returned an IC50 of less than 100 nM. The compound `O=C(N[C@@H]1CCC[C@H](Nc2cc(C(F)(F)F)nc3ccccc23)C1)C1COCCN1Cc1ccccc1` (mixture of isomers) [Example 4-31] showed an IC50 greater than 2500 nM. With `Cc1cc(C(=O)N[C@@H]2CCC[C@H](Nc3cc(C(F)(F)F)nc4ccc(Cl)cc34)C2)c(C)[nH]1` [Example 4-426] the figure was less than 100 nM; with `Cc1nc2c(s1)CN(C(=O)N[C@@H]1CCC[C@H](Nc3cc(C(F)(F)F)nc4ccc(Cl)cc34)C1)CC2` [Example 46, N-((1R,3S)-3-((6-chloro-2-(trifluoromethyl)quinolin-4-yl)amino)cyclohexyl)-2-methyl-6,7-dihydrothiazolo[5,4-c]pyridine-5(4H)-carboxamide], less than 100 nM.

Compound `CCn1ncc(C(=O)N[C@@H]2CCC[C@H](Nc3cc(C(F)(F)F)nc4ccc(Cl)cc34)C2)c1C` [Example 4-452] came in with an IC50 of less than 100 nM.

For `O=C(N[C@@H]1CCC[C@H](Nc2cc(C(F)(F)F)nc3ccc(Cl)cc23)C1)N1CCCC1` [Example 8-3], the IC50 is less than 100 nM. Then `CNc1ccc(C(=O)N[C@@H]2CCC[C@H](Nc3cc(C(F)(F)F)nc4ccc(C)cc34)C2)cc1` [Example 4-130], with less than 100 nM; and `CS(=O)(=O)Nc1ccc(C(=O)N[C@@H]2CCC[C@H](Nc3cc(C(F)(F)F)nc4ccc(F)cc34)C2)cc1` [Example 4-317], with less than 100 nM. Regarding `N#Cc1cc(C(=O)N[C@@H]2CCC[C@H](Nc3cc(C(F)(F)F)nc4ccc(Cl)cc34)C2)c[nH]1` [Example 4-408], the IC50 is less than 100 nM. Then `O=C(N[C@@H]1CCC[C@H](Nc2cc(C(F)(F)F)nc3ccccc23)C1)c1ccc2[nH]c(-c3ccncc3)nc2c1` [Example 4-181], with 100 to 500 nM; and `O=C(N[C@@H]1CCC[C@H](Nc2cc(C(F)(F)F)nc3ccc(Cl)cc23)C1)c1c[nH]cc1C(F)(F)F` [Example 4-394], with less than 100 nM. Then `CC(C)(C)OC(=O)N1CCC[C@@H](n2cc(C(=O)N[C@@H]3CCC[C@H](Nc4cc(C(F)(F)F)nc5ccc(Cl)cc45)C3)cn2)C1` [Example 5-13], with less than 100 nM. On to `N#Cc1nn(CCF)cc1C(=O)N[C@@H]1CCC[C@H](Nc2cc(C(F)(F)F)nc3ccc(Cl)cc23)C1` [Example 5-31], for which the IC50 was less than 100 nM. With `CNc1ccccc1C(=O)N[C@@H]1CCC[C@H](Nc2cc(C(F)(F)F)nc3ccc(C)cc23)C1` [Example 4-165] the figure was 501 to 1000 nM; with `CC(C)S(=O)(=O)Nc1cccc(C(=O)N[C@@H]2CCC[C@H](Nc3cc(C(F)(F)F)nc4ccc(Cl)cc34)C2)c1` [Example 4-228], less than 100 nM. `CCc1ccc(C(=O)N[C@@H]2CCC[C@H](Nc3cc(C(F)(F)F)nc4ccccc34)C2)cc1` [Example 4-18] yielded a half-maximal inhibitory concentration (IC50) of 100 to 500 nM. Consider `Nc1cnc(Cl)c(C(=O)N[C@@H]2CCC[C@H](Nc3cc(C(F)(F)F)nc4ccc(Cl)cc34)C2)c1` [Example 4-418], for which the IC50 is less than 100 nM. In turn, `CC(C)S(=O)(=O)Nc1cccc(C(=O)N[C@@H]2CCC[C@H](Nc3cc(C(F)(F)F)nc4ccc(F)cc34)C2)c1` [Example 4-297] showed an IC50 of less than 100 nM. Turning to `CS(=O)(=O)Nc1cc(C(=O)N[C@@H]2CCC[C@H](Nc3cc(C(F)(F)F)nc4ccc(Cl)cc34)C2)ccc1F` [Example 4-258], the IC50 is less than 100 nM.
